In brackets after ≈: the same amount, converted by molar mass. Structures can show the parent of a compound that is named as a salt.
Key:
[1] = system: human blood-plaques (aggregation with adrenaline); experiment: Inhibition of blood-plaque aggregation induced by adrenaline; assay type: cell-based; details: hydrochloride
Description: (§1) The blood plaques used for these studies were human blood-plaques introduced into the test in the form of blood-plaque rich plasmas (B.P.R.P.).
(§2) These latter were obtained as water-repellent material by slow centrifugation from human blood samples.
(§3) The study of blood-plaque aggregation was made by means of an aggregate-meter with continuous agitation and graphic recording according to the conventional method. (PROST R. S., SOUVERAIN C. H., DOUMENC J., Etude de l'agregation plaquettaire a l'aide de l'agregametre de MUSTARD-Coagulation, 1971, 4, 2, 145-151).
(§4) The agents employed for inducing aggregation were diphosphoric adenosine acid (D.P.A.), 1-(3',4'-di-hydroxyphenyl)-2-methylamino ethanol (adrenaline) and collagene. All these reactants were prepared from mother solutions diluted in a Michaelis' buffer. Their concentration in the test may vary according to the affinity of the blood-plaques.
(§5) An optimum concentration is thus sought by successive tests on the same B.P.R.P.
(§6) The inhibitory activity on the aggregation was evaluated by addition of the product under study to the B.P.R.P. before introduction of the aggregating agent.
(§7) The concentrations of compounds of formula I (X) in the B.P.R.P. are: C (X)=2.5×10^-5 g/ml for aggregation with D.P.A. and adrenaline, and C (X)=2×10^-5 g/ml for collagene.
(§8) The reference product (R) is 2,6-bis (diethanolamino)-4,8-dipiperidinopyrimido[5,4-d]pyramidine (known under the trademark "Dipyridamole") used in the concentration C (R)=5×10^-4 g/ml for aggregation with D.P.A. and adrenaline and C (R)=2×10^-4 g/ml for aggregation with collagene.
(§9) The following table IV indicates the activity of some compounds of formula I: a (X) the activity of the reference product: a (R) and the different values of the ratio: [formula]

[2] = system: human blood-plaques (aggregation with collagene); experiment: Inhibition of blood-plaque aggregation induced by collagene; assay type: cell-based; details: for Ratio of a (X) to a (R), COLLAGENE (head drawn): X 2×10^-5 g/ml, R 2×10^-4 g/ml
Description: as §1, §2, §3, §4, §5, §6, §7, §8, §9

[3] = system: phenylparaquinone (P.P.Q.) painful syndrome in a mouse; experiment: Analgesic and anti-inflammatory activity, phenylparaquinone (P.P.Q.) painful syndrome; assay type: in vivo; details: for Analgesic and anti-inflammatory activity, percentage activity a(X): 50 mg/kg digestively, crises between 10 and 15 minutes; for a(X) / a(R), analgesic and anti-inflammatory activity: X 50 mg/kg, R (Galfenine) 25 mg/kg
Procedure: The intraperitoneal injection of phenylparaquinone (P.P.Q.) in a mouse causes the appearance of a painful syndrome appearing within 5 minutes of the injection and disappearing after about 30 minutes (SIEGMUND E. A., CADMUS A., LU G., J. Pharmacol. Exp. Therap. 1957, 119, 453). This painful syndrome manifests itself in the animal by a series of characteristic crises, more or less close together and fleeting, during which we can note a twisting or stretching of the body, a hollowing of the sides and a stretching of the hind legs.
It is therefore possible to note the number of crises in a given interval of time.
The preventive administration of analgesic or anti-inflammatory substances prevents the appearance of crises or reduces the frequency thereof.
The reference substance (R) used in the tests was the ester of N-(7-chloro-4 quinolyl) anthranilic acid and 2,3-dihydroxy n.propanol (known under the trademark Galfenine).
It was administered orally with a dose of 25 mg/kg.
The compounds of formula I (X) were administered digestively with a dose of 50 mg/kg.
The interval of time (t) which was chosen to evaluate the analgesic activity was between 10 and 15 minutes which is the period of maximum frequency of the crises. This activity was expressed in the following way:
n: number of crises observed in the control mice;
n': number of crises observed in mice previously treated with the reference substance (R);
n": number of crises observed in mice having received the substance (X).
The percentage activity of R is equal to [formula]
The percentage activity of X is equal to [formula]
The activity of X in relation to that of R is estimated by the ratio [formula]
For example: a compound X for which [formula] is 0.5 has an activity equal to half that of the reference product.

mouse = experiment: Acute toxicity, oral, mouse (LD 50, Miller and Tainter); assay type: in vivo; details: death rate checked for seven days, 10080 min
Procedure: (§10) The acute toxicity of the compounds of formula (I) were evaluated orally (esophagean probe) on a mouse deprived of food 18 hours before the beginning of the test. The products were placed in suspension in a solution of dilute carboxymethyl cellulose. Calculation of the 50 lethal dose (LD 50) was effected according to the method of Miller and Tainter (Miller L. C., Tainter M. L., Proc. Soc. Exptl. Biol. Med. 1944, 57, 261-264).
(§11) The death rate was checked for seven days following the treatment.
(§12) Table III gives the 50% lethal doses (LD 50) in milligrammes per kilogramme body weight.

rat's isolated duodenum = experiment: Spasmolytic activity on isolated duodenum contracted by barium chloride (Magnus); details: for ED 50 (R) / ED 50 (X): relative to papaverine hydrochloride
Procedure: The spasmolytic activity was studied on a rat's isolated duodenum maintained in a survival medium of an aerated Tyrode solution heated to 38° C. according to the technique of Magnus (Magnus R.-Archivs ges. Physiol., 1905, 180, 1-71).
The contracting agent used was barium chloride, the reference antogonist agent being papaverine hydrochloride (R). The average activity of the compounds of formula I (X) in comparison with that of the reference agent was expressed by calculating the ratio of the 50 efficient doses (ED 50) determined graphically on logarithmic paper: [formula]
For example: a substance having a relative activity expressed by the FIG. 2 presents an activity equal to twice that of papaverine hydrochloride.

[4] = system: isolated heart of a gumea-pig; experiment: Vaso-dilatatory activity, coronary flow of isolated perfused heart
Procedure: The coronary flow is recorded, by means of an electronic device fitted with a Fleish totaliser, before and after addition of the substance X under study (concentration: 1×10^-5 g/ml), the reference product (R) being 2,6-bis (diethanolamino) 4,8-dipiperidinopyrimido[5,4-d]pyrimidine (known under the trademark "Dipyridamole") used at a concentration of 1×10^-5 g/ml.
The percentage flow increase P was calculated at the climax of the activity of X or R.

[5] = system: human blood-plaques (aggregation with D.P.A.); experiment: Inhibition of blood-plaque aggregation induced by D.P.A.; assay type: cell-based
Description: as §1, §2, §3, §4, §5, §6, §7, §8, §9

human blood-plaques = experiment: Blood-plaque aggregation inhibition (all inducers, overall statement); assay type: cell-based; details: compared with reference product, taking the ratio into account
Description: as §1, §2, §3, §4, §5, §6
The concentrations of compounds of formula I (X) in the B.P.R.P. are: C (X)=2.5×10^-5 g/ml for aggregation with D.P.A. and adrenaline, and C (X)=2×10^-5 g/ml for collagene. […]

[6] = Acute toxicity, oral, mouse (LD 50, Miller and Tainter); assay type: in vivo; details: in vivo, po, death rate checked for seven days, read-out: 50% lethal dose (LD 50) (converted)
Procedure: as §10, §11, §12

## O=C(CCCN1CCOCC1)c1cc2ccccc2s1 [Compound 2, 1-(benzothien-2'-yl)-4-N-morpholino butanone hydrochloride]
[1]; C (X)=2.5×10^-5 g/ml
  Inhibitory activity of the blood-plaque aggregation, ADRENALINE, a (X): 15%
[1]; adrenaline, X 2.5×10^-5 g/ml, R 5×10^-4 g/ml
  Ratio of a (X) to a (R), ADRENALINE (head drawn): 1.65×10^-1
[2]; C (X)=2×10^-5 g/ml, hydrochloride
  Inhibitory activity of the blood-plaque aggregation, COLLAGENE, a (X): 12%
[2]; hydrochloride
  Ratio of a (X) to a (R), COLLAGENE (head drawn): 3.3×10^-1
[3]; hydrochloride
  Analgesic and anti-inflammatory activity, percentage activity a(X): 38%
  a(X) / a(R), analgesic and anti-inflammatory activity: 5 × 10^-1
mouse; hydrochloride
  50% lethal dose (LD 50): 1 500 mg/kg/p.o.

## CCN(CC)CCCC(=O)c1csc2ccccc12 [Compound 10]
rat's isolated duodenum
  ED 50 (R) / ED 50 (X): 1.05
[4]; 1×10^-5 g/ml, coronary flow at climax of activity, Locke, 37° C., read-out: Percentage flow increase P (X)
  activation at 10 µg/mL: 60%
[4]; relative to Dipyridamole, both 1×10^-5 g/ml
  P (X) / P (R): 1.4
mouse
  50% lethal dose (LD 50): 1 100 mg/kg/p.o.

## O=C(CCCN1CCCCCC1)c1csc2ccccc12 [Compound 16]
[2]; Homo sapiens, C (X)=2×10^-5 g/ml, read-out: Inhibitory activity of the blood-plaque aggregation, COLLAGENE, a (X)
  inhibition at 20 µg/mL: 92%
[2]
  Ratio of a (X) to a (R), COLLAGENE (head drawn): 2.5
rat's isolated duodenum
  ED 50 (R) / ED 50 (X): 2.7
[3]
  Analgesic and anti-inflammatory activity, percentage activity a(X): 44%
  a(X) / a(R), analgesic and anti-inflammatory activity: 5.9 × 10^-1
[5]; C (X)=2.5×10^-5 g/ml
  Inhibitory activity of the blood-plaque aggregation, D.P.A., a (X): 47%
[5]; D.P.A., X 2.5×10^-5 g/ml, R 5×10^-4 g/ml
  Ratio of a (X) to a (R), D.P.A. (head drawn): 5.5×10^-1
mouse
  50% lethal dose (LD 50): 1 200 mg/kg/p.o.

## O=C(CCCN1CCOCC1)c1csc2ccccc12 [Compound 17]
Human blood-plaques
  Inhibitory activity on the blood-plaque aggregation (in words): substantially superior
rat's isolated duodenum; Rattus norvegicus, barium chloride contraction, Tyrode, 38° C., read-out: Spasmolytic activity ED 50 (X)
  IC50: 2.15 µg/mL (≈ 7.43 µM)
rat's isolated duodenum
  ED 50 (R) / ED 50 (X): 3.4
[3]
  Analgesic and anti-inflammatory activity, percentage activity a(X): 55%
  a(X) / a(R), analgesic and anti-inflammatory activity: 1.2
[6]
  LD50 at 168 h: 1000 mg/kg

From patent publication US4186136A, “Novel benzothienyl amino (propyl and butyl) ketones, a method of preparation thereof and their application to therapeutics” (priority 1975, dated 1980)
